Test results published in ChEMBL document CHEMBL2074414, “Molecular and functional characterization of organic cation/carnitine transporter family in mice” (J Biol Chem, 2000).

How the values were obtained:
[1] = molecular target: T1, Solute carrier family 22 member 21 (Mus musculus) (UniProt Q9WTN6); assay: TP_TRANSPORTER: inhibition of carnitine transport by gamma-butyrobetaine at 5uM in Octn3-HEK cells; assay type: functional, cell-based; design: scale not given: the % may be the effect or the level left; conditions: HEK293
T1 sequence (whole entry): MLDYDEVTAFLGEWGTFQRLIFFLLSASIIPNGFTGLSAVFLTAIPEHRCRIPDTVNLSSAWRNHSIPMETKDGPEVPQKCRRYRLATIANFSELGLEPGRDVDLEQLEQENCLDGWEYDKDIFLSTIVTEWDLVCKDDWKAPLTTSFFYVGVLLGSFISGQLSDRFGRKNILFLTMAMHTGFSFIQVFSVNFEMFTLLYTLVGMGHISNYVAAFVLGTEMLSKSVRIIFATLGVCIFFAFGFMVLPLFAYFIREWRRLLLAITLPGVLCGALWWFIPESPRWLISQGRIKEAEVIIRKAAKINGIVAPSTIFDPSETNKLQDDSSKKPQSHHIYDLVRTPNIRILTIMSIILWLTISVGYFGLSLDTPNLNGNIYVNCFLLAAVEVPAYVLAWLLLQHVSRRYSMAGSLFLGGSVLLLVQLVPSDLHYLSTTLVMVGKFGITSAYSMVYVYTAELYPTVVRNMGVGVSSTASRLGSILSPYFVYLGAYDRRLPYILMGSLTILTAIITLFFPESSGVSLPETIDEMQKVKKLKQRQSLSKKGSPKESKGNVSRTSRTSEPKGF

[2] = molecular target: T2, Octn2 (Organic cation/carnitine transporter 2) (Mus musculus, UniProt Q9Z0E8); assay: TP_TRANSPORTER: inhibition of carnitine uptake by gamma-butyrobetaine at 5uM in Octn2-HEK cells; assay type: functional, cell-based, HEK293; design: scale not given: the % may be the effect or the level left; conditions: human, probe carnitine, read-out: Activity
T2 sequence (Q9Z0E8 whole entry): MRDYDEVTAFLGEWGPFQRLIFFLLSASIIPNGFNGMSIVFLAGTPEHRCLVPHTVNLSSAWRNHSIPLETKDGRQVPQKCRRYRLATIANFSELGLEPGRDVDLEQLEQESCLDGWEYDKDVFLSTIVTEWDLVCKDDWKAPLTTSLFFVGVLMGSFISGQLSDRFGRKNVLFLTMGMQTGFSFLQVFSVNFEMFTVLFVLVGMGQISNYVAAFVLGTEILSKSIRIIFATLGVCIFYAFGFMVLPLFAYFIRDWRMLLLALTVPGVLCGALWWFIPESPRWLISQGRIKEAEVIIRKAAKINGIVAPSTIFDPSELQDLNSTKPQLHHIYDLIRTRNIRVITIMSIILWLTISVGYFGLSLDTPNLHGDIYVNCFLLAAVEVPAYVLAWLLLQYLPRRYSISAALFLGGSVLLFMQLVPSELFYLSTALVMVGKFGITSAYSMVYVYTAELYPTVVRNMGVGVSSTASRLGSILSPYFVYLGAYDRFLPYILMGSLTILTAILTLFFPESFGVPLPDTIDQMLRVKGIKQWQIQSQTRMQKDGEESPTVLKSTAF

[3] = molecular target: T3, Organic cation/carnitine transporter 2 (Mus musculus, UniProt Q9Z0E8); assay: TP_TRANSPORTER: inhibition of carnitine uptake by Acetyl-L-carnitine at 5uM in Octn2-HEK cells; assay type: functional, cell-based; design: scale not given: the % may be the effect or the level left; conditions: human, hek293, 5 µM
T3 sequence (Q9Z0E8 whole entry): T2 sequence (Q9Z0E8 whole entry)

[4] = molecular target: T1, Solute carrier family 22 member 21 (Mus musculus); assay: TP_TRANSPORTER: inhibition of carnitine uptake by Acetyl-L-carnitine at 5uM in Octn3-HEK cells; assay type: functional, cell-based; design: scale not given: the % may be the effect or the level left; conditions: HEK293
[5] = molecular target: T3, Organic cation/carnitine transporter 2; assay: TP_TRANSPORTER: inhibition of carnitine uptake by Glycine betaine at […] in Octn2-HEK cells; assay type: functional, cell-based; design: scale not given: the % may be the effect or the level left; conditions: human, hek293
[6] = molecular target: T1, Solute carrier family 22 member 21 (Mus musculus); assay: TP_TRANSPORTER: inhibition of carnitine uptake by Glycine betaine at 500uM in Octn3-HEK cells; assay type: functional, cell-based; design: scale not given: the % may be the effect or the level left; conditions: HEK293
[7] = molecular target: T3, Organic cation/carnitine transporter 2; assay: TP_TRANSPORTER: inhibition of carnitine uptake by Butyryl-carnitine at 5uM in Octn2-HEK cells; assay type: functional, cell-based; design: scale not given: the % may be the effect or the level left; conditions: human, hek293, 5 µM
[8] = molecular target: T1, Solute carrier family 22 member 21 (Mus musculus); assay: TP_TRANSPORTER: inhibition of carnitine transport by Butyryl-carnitine at 5uM in Octn3-HEK cells; assay type: functional, cell-based; design: scale not given: the % may be the effect or the level left; conditions: HEK293
[9] = molecular target: T4, Solute carrier family 22 member 4 (Mus musculus, UniProt Q9Z306); assay: TP_TRANSPORTER: uptake in Octn1-HEK cells; assay type: functional, cell-based; conditions: human, hek293
T4 sequence (Q9Z306 whole entry): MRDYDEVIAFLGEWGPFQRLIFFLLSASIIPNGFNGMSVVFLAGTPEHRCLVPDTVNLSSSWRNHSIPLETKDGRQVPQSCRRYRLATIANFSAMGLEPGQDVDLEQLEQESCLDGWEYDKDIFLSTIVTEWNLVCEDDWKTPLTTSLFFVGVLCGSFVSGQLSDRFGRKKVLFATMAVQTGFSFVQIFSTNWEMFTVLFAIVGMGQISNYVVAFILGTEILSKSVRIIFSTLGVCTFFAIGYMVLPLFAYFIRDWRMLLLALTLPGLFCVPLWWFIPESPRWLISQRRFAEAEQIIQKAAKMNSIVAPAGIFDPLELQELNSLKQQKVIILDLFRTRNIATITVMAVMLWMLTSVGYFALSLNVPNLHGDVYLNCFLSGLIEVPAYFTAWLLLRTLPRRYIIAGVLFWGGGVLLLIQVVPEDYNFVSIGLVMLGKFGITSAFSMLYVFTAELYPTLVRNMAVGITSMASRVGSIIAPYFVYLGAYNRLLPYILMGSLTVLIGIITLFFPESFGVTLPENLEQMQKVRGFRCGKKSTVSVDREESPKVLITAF

[10] = molecular target: T2, Octn2 (Organic cation/carnitine transporter 2); assay: in vitro; conditions: human, Octn2-HEK cells, probe carnitine
[11] = molecular target: T2, Octn2 (Organic cation/carnitine transporter 2); assay: TP_TRANSPORTER: inhibition of carnitine uptake by Octanoyl-carnitine at 5uM in Octn2-HEK cells; assay type: functional, cell-based, HEK293; design: scale not given: the % may be the effect or the level left; conditions: human, probe carnitine, read-out: Activity
[12] = molecular target: T1, Solute carrier family 22 member 21 (Mus musculus); assay: TP_TRANSPORTER: inhibition of carnitine uptake by Octanoyl-carnitine at 5uM in Octn3-HEK cells; assay type: functional, cell-based; design: scale not given: the % may be the effect or the level left; conditions: HEK293
[13] = molecular target: T2, Octn2 (Organic cation/carnitine transporter 2); assay: TP_TRANSPORTER: inhibition of carnitine transport by Palmitoyl-carnitine at 5uM in Octn2-HEK cells; assay type: functional, cell-based, HEK293; design: scale not given: the % may be the effect or the level left; conditions: human, probe carnitine, read-out: Activity
[14] = molecular target: T1, Solute carrier family 22 member 21 (Mus musculus); assay: TP_TRANSPORTER: inhibition of carnitine in Octn3-HEK cells; assay type: functional, cell-based; conditions: HEK293
[15] = substrate: C[N+](C)(C)CC(O)CC(=O)[O-]; assay: TP_TRANSPORTER: uptake in Octn3-HEK cells; assay type: functional, cell-based; conditions: HEK293
[16] = substrate: C[N+](C)(C)CC(O)CC(=O)[O-]; assay: TP_TRANSPORTER: uptake in Octn2-HEK cells; assay type: functional, cell-based, HEK293
[17] = substrate: CC[N+](CC)(CC)CC; assay: cells, lysate or membranes named

Molecule `C[N+](C)(C)CCCC(=O)[O-]` has an Activity [1] of 11% and an activity at 5 µM [2] of 77%.

Molecule `CC(=O)O[C@H](CC(=O)[O-])C[N+](C)(C)C` [ACETYLCARNITINE] has an Activity [3] of 67% and an Activity [4] of 21%.

With `C[N+](C)(C)CC(=O)O` [BETAINE] the Activity [5] was 56% and the Activity [6] was 84%.

Molecule `CCCC(=O)OC(CC(=O)[O-])C[N+](C)(C)C` (stereo not drawn) [Butyryl-carnitine] has an Activity [7] of 66% and an Activity [8] of 13%.

`C[N+](C)(C)CC(O)CC(=O)[O-]` (stereo not drawn) [CARNITINE] was tested, and the Activity [9] was “substrate []”.

For `C[N+](C)(C)CCO` [CHOLINE], the activity at 500 µM [10] was 75%.

For `CCCCCCCC(=O)OC(CC(=O)O)C[N+](C)(C)C` (stereo not drawn) [Octanoyl-carnitine], the activity at 5 µM [11] was 38% and the Activity [12] was 15%.

Work on `CCCCCCCCCCCCCCCC(=O)OC(CC(=O)[O-])C[N+](C)(C)C` (stereo not drawn) [Palmitoyl-carnitine] yielded an activity at 5 µM [13] of 28% and an Activity [14] of 54 µM.

B1: Solute carrier family 22 member 21 (Mus musculus), Q9WTN6 (protein)
chain: T1 sequence (whole entry)
B1 was tested, and the Km [15] was 3 µM.

B2: Organic cation/carnitine transporter 2 (Mus musculus) (protein)
chain: T2 sequence (Q9Z0E8 whole entry)
For B2, the Km [16] was 22 µM and the Km [17] was 216 µM.

B3: Solute carrier family 22 member 4 (Mus musculus) (protein)
chain: T4 sequence (Q9Z306 whole entry)
B3 showed a Km [17] of 452 µM.
